Test results published in article PMC2832311 (Journal of medicinal chemistry, 2009).
Entries after “also recorded” stand apart in the source; their conditions may differ. Like-named read-outs stand apart in the source and are kept apart here.

Legend:
[1] = molecular target: T1, human 5-HT2C (INI) receptor (Homo sapiens, UniProt P28335); assay: Calcium flux assay, 5-HT2C; details: for 5-HT2C agonist efficacy (in words): calcium flux; for EC50: NA: Emax ≤ 12%; for Emax: read-out: 5-HT2C Emax, percent of maximal activation by 5-HT; for Selectivity 2A/2C / Selectivity 2B/2C: EC50 ratio
T1 sequence (P28335 33-458): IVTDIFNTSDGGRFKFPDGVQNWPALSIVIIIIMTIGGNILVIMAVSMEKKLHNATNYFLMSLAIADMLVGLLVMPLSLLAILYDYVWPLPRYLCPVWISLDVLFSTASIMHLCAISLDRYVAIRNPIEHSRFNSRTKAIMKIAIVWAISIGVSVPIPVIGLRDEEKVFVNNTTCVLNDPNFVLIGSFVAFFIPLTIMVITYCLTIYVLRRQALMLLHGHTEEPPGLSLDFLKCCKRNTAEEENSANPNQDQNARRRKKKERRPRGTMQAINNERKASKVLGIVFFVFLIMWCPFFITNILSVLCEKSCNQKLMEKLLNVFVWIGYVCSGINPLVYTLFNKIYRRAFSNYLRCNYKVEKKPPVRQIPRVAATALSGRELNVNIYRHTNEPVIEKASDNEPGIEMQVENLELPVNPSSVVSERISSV

MAO = details: tryptamine potentiation model; cited from earlier work
human 5-HT2B receptor = human 5-HT2B receptor (Homo sapiens, UniProt P41595); assay: Calcium flux assay, 5-HT2B; details: for EC50: 5-HT2B EC50, HEK-293, NA: Emax ≤ 12%; for Emax: read-out: 5-HT2B Emax, percent of maximal activation by 5-HT
Sequence of human 5-HT2B receptor (P41595 whole entry): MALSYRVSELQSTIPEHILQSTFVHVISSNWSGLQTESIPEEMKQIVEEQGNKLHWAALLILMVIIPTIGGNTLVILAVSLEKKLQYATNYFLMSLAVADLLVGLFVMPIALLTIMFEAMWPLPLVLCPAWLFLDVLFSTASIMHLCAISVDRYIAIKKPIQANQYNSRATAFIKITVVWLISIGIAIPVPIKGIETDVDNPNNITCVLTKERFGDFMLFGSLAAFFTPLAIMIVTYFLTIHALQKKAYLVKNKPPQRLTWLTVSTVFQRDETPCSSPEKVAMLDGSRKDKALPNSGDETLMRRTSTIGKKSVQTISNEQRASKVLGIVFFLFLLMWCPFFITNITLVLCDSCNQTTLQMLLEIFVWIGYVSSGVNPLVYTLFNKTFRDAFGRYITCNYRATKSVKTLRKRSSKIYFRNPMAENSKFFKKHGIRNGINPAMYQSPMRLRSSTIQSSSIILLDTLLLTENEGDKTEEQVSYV

human 5-HT2A receptor = human 5-HT2A receptor (Homo sapiens, UniProt P28223); assay: Calcium flux assay, 5-HT2A; details: for EC50: 5-HT2A EC50, HEK-293, NA: Emax ≤ 12%; for Emax: read-out: 5-HT2A Emax, percent of maximal activation by 5-HT
Sequence of human 5-HT2A receptor (P28223 whole entry): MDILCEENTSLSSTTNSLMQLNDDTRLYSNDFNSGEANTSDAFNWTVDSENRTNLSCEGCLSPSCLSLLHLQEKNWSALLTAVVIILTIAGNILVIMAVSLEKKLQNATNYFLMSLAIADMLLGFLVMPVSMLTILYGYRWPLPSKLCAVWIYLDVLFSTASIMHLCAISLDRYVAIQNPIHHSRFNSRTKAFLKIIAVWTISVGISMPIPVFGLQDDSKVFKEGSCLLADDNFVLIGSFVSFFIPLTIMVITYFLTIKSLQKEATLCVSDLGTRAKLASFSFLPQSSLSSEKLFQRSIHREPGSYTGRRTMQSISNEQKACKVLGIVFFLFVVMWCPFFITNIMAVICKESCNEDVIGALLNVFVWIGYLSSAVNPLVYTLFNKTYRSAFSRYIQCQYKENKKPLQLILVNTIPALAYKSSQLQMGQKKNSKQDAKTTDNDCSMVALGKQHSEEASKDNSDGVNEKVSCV

C57BL/6J male mice = assay: Mouse forced swim test; assay type: in vivo; details: 30 min prior to testing
[2] = 5-HT2C EC50, HEK-293, Table 2 section 1
[3] = 5-HT2C EC50, HEK-293, Table 2 section 4
[4] = Table 2 section 1 (independent campaign)
[5] = Table 2 section 2 (independent campaign)
[6] = 5-HT2C EC50, HEK-293, Table 2 section 2

N[C@@H]1C[C@H]1c1ccccc1 (racemic) [compound 9, tranylcypromine, reference compound]
5-HT2C agonist efficacy (in words) [1]: full agonists

Cl.NC[C@@H]1C[C@H]1c1ccccc1 (relative stereo) [14a, trans-(2-Phenylcyclopropyl)methylamine Hydrochloride]
5-HT2C agonist efficacy (in words) [1]: full agonists
MAO inhibitory activity (MAO): devoid of MAO inhibitory activity

CC(C)N[C@@H]1C[C@H]1c1ccccc1 (relative stereo) [compound 18, trans-N-Isopropyl-(2-phenylcyclopropyl)amine]
EC50 ([1]; 5-HT2C EC50, HEK-293 stably transfected, Table 1 section 2): 3.42 µM
Emax ([1]; Table 1 section 2): 18%

Cl.NC[C@H]1C[C@@H]1c1ccccc1F (relative stereo) [compound 27, trans-[2-(2-Fluorophenyl)cyclopropyl]methylamine Hydrochloride]
EC50 (human 5-HT2B receptor; Table 2 section 1): 1.55 µM
EC50 (human 5-HT2B receptor; Table 2 section 2): 0.199 µM
Emax (human 5-HT2B receptor; Table 2 section 2): 89%
Emax (human 5-HT2B receptor; Table 2 section 4): 84%
EC50 [1, 2]: 0.037 µM
EC50 [1, 3]: 0.033 µM
Selectivity 2A/2C ([1]; Table 2 section 1): > 27
Selectivity 2B/2C ([1]; Table 2 section 1): 42
Selectivity 2A/2C ([1]; Table 2 section 2): 32
Selectivity 2B/2C ([1]; Table 2 section 2): 6.8
Emax ([1]; Table 2 section 1): 94%
EC50 (human 5-HT2A receptor; [4]): > 1 µM
EC50 (human 5-HT2A receptor; [5]): 0.942 µM
EC50 (human 5-HT2A receptor; Table 2 section 4 (independent campaign)): 0.681 µM
Emax (human 5-HT2A receptor; Table 2 section 2): 79%
Emax (human 5-HT2A receptor; Table 2 section 4): 62%

Cl.NC[C@H]1C[C@@H]1c1ccccc1Cl (relative stereo) [compound 28, trans-[2-(2-Chlorophenyl)cyclopropyl]methylamine Hydrochloride]
EC50 (human 5-HT2B receptor; Table 2 section 1): 0.084 µM
EC50 [1, 6]: 0.0055 µM
Selectivity 2A/2C ([1]; Table 2 section 1): 79
Selectivity 2B/2C ([1]; Table 2 section 1): 16
Emax ([1]; Table 2 section 1): 98%
EC50 (human 5-HT2A receptor; [4]): 0.403 µM
Emax (human 5-HT2A receptor; Table 2 section 2): 87%

Cl.NC[C@@H]1C[C@H]1c1ccccc1Br (relative stereo) [compound 29, trans-[2-(2-Bromophenyl)cyclopropyl]methylamine Hydrochloride]
EC50 (human 5-HT2B receptor; Table 2 section 1): 0.154 µM
EC50 [1, 2]: 0.0028 µM
Selectivity 2A/2C ([1]; Table 2 section 1): 206
Selectivity 2B/2C ([1]; Table 2 section 1): 54
Emax ([1]; Table 2 section 1): 93%
EC50 (human 5-HT2A receptor; [4]): 0.585 µM

Cl.NC[C@H]1C[C@@H]1c1cccc(F)c1 (relative stereo) [compound 34, trans-[2-(3-Fluorophenyl)cyclopropyl]methylamine Hydrochloride]
EC50 (human 5-HT2B receptor; Table 2 section 1): 0.051 µM
EC50 (human 5-HT2B receptor; Table 2 section 2): 0.013 µM
Emax (human 5-HT2B receptor; Table 2 section 1): 106%
Emax (human 5-HT2B receptor; Table 2 section 2): 96%
EC50 [1, 2]: 0.0039 µM
Selectivity 2A/2C ([1]; Table 2 section 1): 450
Selectivity 2B/2C ([1]; Table 2 section 1): 13
Selectivity 2A/2C ([1]; Table 2 section 2): 225
Selectivity 2B/2C ([1]; Table 2 section 2): 4.0
Emax ([1]; Table 2 section 2): 97%
Emax ([1]; Table 2 section 4): 96%
EC50 (human 5-HT2A receptor; [4]): 1.77 µM
EC50 (human 5-HT2A receptor; [5]): 0.733 µM
Emax (human 5-HT2A receptor; Table 2 section 4): 73%

Cc1cccc([C@H]2C[C@@H]2CN)c1.Cl (relative stereo) [compound 37, trans-[2-(3-Methylphenyl)cyclopropyl]methylamine Hydrochloride]
immobility time (in words) (C57BL/6J male mice; 10–60 mg/kg i.p., vs vehicle): decreased immobility time; also recorded: significant decrease in immobility; also recorded: dose-dependent decrease in immobility time

Cl.NC[C@H]1C[C@@H]1c1ccc(F)cc1 (relative stereo) [compound 41, trans-[2-(4-Fluorophenyl)cyclopropyl]methylamine Hydrochloride]
EC50 (human 5-HT2B receptor; Table 2 section 1): 0.312 µM
EC50 (human 5-HT2B receptor; Table 2 section 2): 0.057 µM
Emax (human 5-HT2B receptor; Table 2 section 1): 95%
EC50 [1, 6]: 0.0084 µM
EC50 [1, 3]: 0.011 µM
Selectivity 2A/2C ([1]; Table 2 section 1): 202
Selectivity 2B/2C ([1]; Table 2 section 1): 57
Selectivity 2A/2C ([1]; Table 2 section 2): 77
Selectivity 2B/2C ([1]; Table 2 section 2): 6.8
Emax ([1]; Table 2 section 4): 96%
EC50 (human 5-HT2A receptor; [4]): 1.1 µM
EC50 (human 5-HT2A receptor; [5]): 0.646 µM
Emax (human 5-HT2A receptor; Table 2 section 2): 80%
Emax (human 5-HT2A receptor; Table 2 section 4): 68%

Cl.NC[C@H]1C[C@@H]1c1ccc(C(F)(F)F)cc1 (relative stereo) [compound 45, trans-[2-(4-Trifluoromethylphenyl)cyclopropyl]methylamine Hydrochloride]
Selectivity 2B/2C ([1]; Table 2 section 1): > 1

Cl.NC[C@H]1C[C@@H]1c1ccccc1 [(+)-14a, (+)-trans-(S,S)-(2-Phenylcyclopropyl)methylamine Hydrochloride]
5-HT2C agonist efficacy (in words) [1]: full agonists

Cl.NC[C@@H]1C[C@H]1c1ccccc1 [(−)-14a, (−)-trans-(R,R)-(2-Phenylcyclopropyl)methylamine Hydrochloride]
Selectivity 2A/2C ([1]; Table 1 section 2): > 10

C[C@H]1CNCCc2ccc(Cl)cc21 [compound 7, (1R)-8-chloro-2,3,4,5-tetrahydro-1-methyl-1H-3-benzazepine, reference compound]
Emax ([1]; Table 2 section 4): 96%
Emax (human 5-HT2A receptor; Table 2 section 4): 33%

CN[C@H]1CC[C@@H](c2ccc(Cl)c(Cl)c2)c2ccccc21 [compound 92, sertraline, reference compound]
immobility time (in words) (C57BL/6J male mice; 10 mg/kg i.p., positive control, p < 0.001): significant decrease in immobility; also recorded: significantly reduced the immobility time
